Source: US10144715B2, “Piperazine derivatives as liver X receptor modulators” (priority 2014, dated 2018)
Read-outs that look alike come from different tables or passages of the source.

How the values were obtained:
LXR α LBD protein [1] = biological target: T1, LXR α LBD protein (Homo sapiens (Human), UniProt Q13133); assay: LXR α radioligand binding assay (SPA, competition with [3H]TO901317); details: read-out: LXRα Binding Ki
LXR β LBD protein [2] = biological target: T2, LXR β LBD protein (Homo sapiens (Human), UniProt P55055); assay: biochemical; assay type: binding; details: read-out: LXRβ Binding Ki
Target sequence in this assay (P55055 222-460 limits assumed): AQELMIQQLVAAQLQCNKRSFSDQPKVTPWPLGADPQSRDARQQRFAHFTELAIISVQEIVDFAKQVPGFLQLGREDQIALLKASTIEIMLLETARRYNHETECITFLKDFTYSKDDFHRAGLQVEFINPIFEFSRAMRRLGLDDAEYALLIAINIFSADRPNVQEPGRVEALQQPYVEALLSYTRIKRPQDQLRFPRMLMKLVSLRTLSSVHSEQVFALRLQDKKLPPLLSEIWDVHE

[3] = biological target: T3, Gal4 DNA binding domain fused to the LBD of LXRα in HEK293 cells (Homo sapiens (Human), UniProt Q13133); assay: LXR luciferase transcriptional reporter gene assay, agonist mode, LXRα; assay type: cell-based; details: for EC50: read-out: Cell LXRα EC50
[4] = biological target: T4, Gal4 DNA binding domain fused to the LBD of LXRβ in HEK293 cells (Homo sapiens (Human), UniProt P55055); assay: cell-based
[5] = biological target: T3, Gal4 DNA binding domain fused to the LBD of LXRα in HEK293 cells; assay: LXR luciferase transcriptional reporter gene assay, antagonist mode (200 nM T0901317), LXRα; assay type: cell-based; details: for IC50: read-out: Cell LXRα IC50
[6] = biological target: T4, Gal4 DNA binding domain fused to the LBD of LXRβ in HEK293 cells; assay: cell-based; assay type: cell-based
LXR α LBD protein [7] = biological target: T1, LXR α LBD protein; assay: Human LXRα coactivator recruitment FRET assay, agonist mode; assay type: biochemical; details: agonist mode
Method in brief: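 Time-resolved FRET (delay 100 µs, window 200 µs) after 2 h rt incubation of compound with 10 nM (2×) GST-tagged LXRα or LXRβ LBD plus 200 nM fluorescein-SRC2-3 and 20 nM Tb-anti-GST (4×). Percent control vs concentration fit to four-parameter model; EC50 at inflection.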

LXR β LBD protein [8] = biological target: T2, LXR β LBD protein; assay: biochemical; assay type: biochemical
Target sequence in this assay (P55055 222-460): as the sequence (P55055 222-460 limits assumed) above

[9] = agonist mode, read-out: Cell LXRβ EC50
[10] = antagonist mode, 200 nM T0901317, HEK293 reporter gene assay
[11] = antagonist mode, 200 nM T0901317, HEK293 reporter gene assay, read-out: Cell LXRβ IC50
[12] = Biological Test Example 2, agonist mode
[13] = Biological Test Example 2, agonist mode, read-out: Cell LXRβ EC50

T1 sequence (Q13133 209-447): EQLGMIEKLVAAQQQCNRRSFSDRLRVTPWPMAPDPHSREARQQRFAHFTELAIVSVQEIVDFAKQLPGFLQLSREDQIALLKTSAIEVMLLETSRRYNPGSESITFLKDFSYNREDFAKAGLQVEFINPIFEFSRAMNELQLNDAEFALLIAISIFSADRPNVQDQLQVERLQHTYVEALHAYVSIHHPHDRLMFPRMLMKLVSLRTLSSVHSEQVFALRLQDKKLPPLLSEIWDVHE
T3 sequence (Q13133 209-447): as above
T4 sequence (P55055 222-460 limits assumed): as the sequence (P55055 222-460 limits assumed) above

| SMILES | Ki (LXR α LBD protein [1]) [nM] | Ki (LXR β LBD protein [2]) [nM] | Cell LXRα efficacy [3] | EC50 [3] [nM] | EC50 [4] [nM] | Cell LXRβ efficacy ([4]; agonist mode) | Cell LXRα efficacy [5] | IC50 [5] [nM] | IC50 [6] [nM] | Cell LXRβ efficacy [6, 10] | EC50 ([3]; agonist mode) [nM] | other results |
| --- | --- | --- | --- | --- | --- | --- | --- | --- | --- | --- | --- | --- |
| CC(O)c1cnc(N2CCN(c3ccc(F)c(S(C)(=O)=O)c3)C[C@H]2C(C)C)nc1C(F)(F)F (mixture of isomers) [Cpd No 12-1, 1-(2-((R)-4-(4-fluoro-3-(methylsulfonyl)phenyl)-2-isopropylpiperazin-1-yl)-4-(trifluoromethyl)pyrimidin-5-yl)ethan-1-ol] | 230 | 23 | 969 (46) % | 969 | 154 | 154 (37) % | 8047 (105) % | 8050 | 252 | – | – | – |
| CS(=O)(=O)c1cccc(N2CCN(C[C@H]3CC[C@@](C)(O)CC3)[C@@H](c3ccccc3)C2)c1 (single isomer, unassigned) [48-5] | 1270 | 123 | – | > 20000 | – | – | 1169 (61) % | 1170 | – | 93% | – | EC50 [4, 9]: > 20000 nM; IC50 [6, 11]: 118 nM |
| NS(=O)(=O)c1cccc(N2CCN(C[C@H]3CC[C@@H](C(F)F)CC3)[C@@H](c3ccccc3)C2)c1 (single isomer, unassigned) [48-23] | 94 | 11 | 319 (43) % | 319 | – | 14% | 4955 (123) % | 4960 | – | 91% | – | EC50 [4, 9]: 97 nM; IC50 [6, 11]: 408 nM |
| CS(=O)(=O)c1cccc(N2CCN(C[C@@H]3C[C@@H]4[C@H](C3)C4(F)F)[C@@H](c3ccccc3)C2)c1 (single isomer, unassigned) [48-66] | 804 | – | 2518 (40) % | 2520 | – | – | 7360 (100) % | 7360 | – | 81% | – | Ki (LXR β LBD protein [2]; Biological Test Example 1): 103 nM; Cell LXRβ efficacy [4, 12]: 20%; EC50 [4, 13]: 716 nM; IC50 [6, 11]: 824 nM |
| CS(=O)(=O)c1cccc(N2CCN(C[C@H]3CC[C@]4(CC3)CC4(F)F)[C@@H](c3ccccc3)C2)c1 (single isomer, unassigned) [48-71] | 50 | – | 236 (57) % | 236 | – | – | – | > 10000 | – | 54% | – | Ki (LXR β LBD protein [2]; Biological Test Example 1): 10 nM; Cell LXRβ efficacy [4, 12]: 25%; EC50 [4, 13]: 75 nM; IC50 [6, 11]: 163 nM |
| CC(C)(O)[C@@H]1CN(c2cccc(S(C)(=O)=O)c2)CCN1c1nccc(C(F)(F)F)n1 [7-24, (S)-2-(4-(3-(methylsulfonyl)phenyl)-1-(4-(trifluoromethyl)pyrimidin-2-yl)piperazin-2-yl)propan-2-ol] | 1030 | 43 | 1586 (50) % | 1590 | 275 | – | – | – | 9 | – | – | Cell LXRβ efficacy [4]: 275 (37) %; Cell LXRβ efficacy [6]: 9 (64) %; EC50 (LXR α LBD protein [7]): 457 nM; FRET LXRα efficacy (LXR α LBD protein [7]): 83%; FRET LXRβ efficacy (LXR β LBD protein [8]): 14 (74) %; EC50 (LXR β LBD protein [8]; read-out: FRET LXRβ EC50): 14 nM |
| CC(C)[C@@H]1CN(c2ccc(F)c(S(C)(=O)=O)c2)CCN1c1ncc(CN(C)C)c(C(F)(F)F)n1 [15-3, (R)-1-(2-(4-(4-fluoro-3-(methylsulfonyl)phenyl)-2-isopropylpiperazin-1-yl)-4-(trifluoromethyl)pyrimidin-5-yl)-N,N-dimethylmethanamine] | – | 47 | 1144 (25) % | – | 74 | 74 (17) % | – | – | 900 | 900 (93) % | 1140 | – |
| CC(C)[C@@H]1CN(c2ccc(F)c(S(C)(=O)=O)c2)CCN1c1ncc(CN2CC(O)C2)c(C(F)(F)F)n1 [15-4, (R)-1-((2-(4-(4-fluoro-3-(methylsulfonyl)phenyl)-2-isopropylpiperazin-1-yl)-4-(trifluoromethyl)pyrimidin-5-yl)methyl)azetidin-3-ol] | – | 100 | 2838 (20) % | – | 182 | 182 (13) % | – | – | 1440 | 1438 (104) % | 2840 | – |
| CC(C)[C@@H]1CN(c2ccc(F)c(S(C)(=O)=O)c2)CCN1c1ncc(CNS(C)(=O)=O)c(C(F)(F)F)n1 [15-7, (R)-N-((2-(4-(4-fluoro-3-(methylsulfonyl)phenyl)-2-isopropylpiperazin-1-yl)-4-(trifluoromethyl)pyrimidin-5-yl)methyl)methanesulfonamide] | 512 | 40 | 2315 (23) % | 2320 | 198 | 198 (18) % | – | – | 1770 | 1773 (113) % | – | – |
| CC(C)[C@@H]1CN(c2ccc(F)c(S(C)(=O)=O)c2)CCN1c1ncc(C(=O)N2CCOCC2)c(C(F)(F)F)n1 [17-8, (R)-(2-(4-(4-fluoro-3-(methylsulfonyl)phenyl)-2-isopropylpiperazin-1-yl)-4-(trifluoromethyl)pyrimidin-5-yl)(morpholino)methanone] | – | 311 | – | – | > 20000 | – | – | – | 538 | 538 (91) % | > 20000 | IC50 [5, 10]: 2280 nM |
| COCCN(C)C(=O)c1cnc(N2CCN(c3ccc(F)c(S(C)(=O)=O)c3)C[C@H]2C(C)C)nc1C(F)(F)F [17-12, (R)-2-(4-(4-fluoro-3-(methylsulfonyl)phenyl)-2-isopropylpiperazin-1-yl)-N-(2-methoxyethyl)-N-methyl-4-(trifluoromethyl)pyrimidine-5-carboxamide] | – | 210 | – | > 20000 | > 20000 | – | – | 1140 | 295 | – | – | – |
| CCOC(=O)CCN(C)C(=O)c1cnc(N2CCN(c3ccc(F)c(S(C)(=O)=O)c3)C[C@H]2C(C)C)nc1C(F)(F)F [17-18, ethyl (R)-3-(2-(4-(4-fluoro-3-(methylsulfonyl)phenyl)-2-isopropylpiperazin-1-yl)-N-methyl-4-(trifluoromethyl)pyrimidine-5-carboxamido)propanoate] | – | 129 | – | – | > 20000 | – | 1159 (92) % | – | 186 | – | > 20000 | IC50 [5, 10]: 1160 nM; Cell LXRβ efficacy [6]: 186 (98) % |
| CC(C)[C@@H]1CN(c2ccc(F)c(S(C)(=O)=O)c2)CCN1c1nccc(OCC(F)(F)F)n1 [44-3, (R)-2-(4-(4-fluoro-3-(methylsulfonyl)phenyl)-2-isopropylpiperazin-1-yl)-4-(2,2,2-trifluoroethoxy)pyrimidine] | – | 67 | – | – | > 20000 | – | – | – | 91 | – | – | Cell LXRβ efficacy [6]: 91 (93) % |
| CC(C)[C@@H]1CN(c2ccc(F)c(S(C)(=O)=O)c2)CCN1c1ncc(CN2CCOCC2)c(C(F)(F)F)n1 [Cpd No 15-5, (R)-4-((2-(4-(4-fluoro-3-(methylsulfonyl)phenyl)-2-isopropylpiperazin-1-yl)-4-(trifluoromethyl)pyrimidin-5-yl)methyl)morpholine] | – | 36 | 2592 (12) % | – | 36 | 36 (3) % | – | – | 221 | 221 (105) % | 2590 | IC50 [5, 10]: 1160 nM |
| CC(C)[C@@H]1CN(c2ccc(F)c(S(C)(=O)=O)c2)CCN1c1ncc(C(=O)N(C)C)c(C(F)(F)F)n1 [Cpd No 17-1, (R)-2-(4-(4-fluoro-3-(methylsulfonyl)phenyl)-2-isopropylpiperazin-1-yl)-N,N-dimethyl-4-(trifluoromethyl)pyrimidine-5-carboxamide] | – | 123 | – | – | 244 | – | – | – | 667 | – | – | Cell LXRβ efficacy [4]: 244 (8) %; Cell LXRβ efficacy [6]: 667 (84) % |
| CC(C)[C@@H]1CN(c2ccc(CO)c(S(C)(=O)=O)c2)CCN1c1ncc(C(N)=O)c(C(F)(F)F)n1 [Cpd No 17-25, (R)-2-(4-(4-(hydroxymethyl)-3-(methylsulfonyl)phenyl)-2-isopropylpiperazin-1-yl)-4-(trifluoromethyl)pyrimidine-5-carboxamide] | – | – | 1127 (18) % | – | 46 | 46 (13) % | 3652 (98) % | – | 359 | 359 (99) % | 1130 | IC50 [5, 10]: 3650 nM |
| CC(C)[C@@H]1CN(c2cc(F)c(CO)c(S(C)(=O)=O)c2)CCN1c1ncc(C(N)=O)c(C(F)(F)F)n1 [Cpd No 17-28, (R)-2-(4-(3-fluoro-4-(hydroxymethyl)-5-(methylsulfonyl)phenyl)-2-isopropylpiperazin-1-yl)-4-(trifluoromethyl)pyrimidine-5-carboxamide] | – | – | 913 (9) % | – | 20 | 20 (9) % | – | – | 182 | 182 (98) % | 913 | IC50 [5, 10]: 2550 nM |
